Results published in patent publication US20230266302A1, “SYNTHESIS AND USE OF N-BENZYL SULFONAMIDES” (THE UNIVERSITY OF TULSA, priority 2020, published 2023).

Tests used:
Assay in all cases: Cytotoxicity testing, CellTiter-Blue assay (FIG. 9)
Format in all cases: cell-based
Settings in all cases: 100 μM, 24 hour compound incubation, result in words
HeLa (cervical cancer) = tested on: HeLa (cervical cancer)
Procedure: (§1) The cytotoxicity tests were carried out in the following manner. Living cells are known to convert resazurin to the fluorescent compound resorufin. Test systems which rely upon this reaction are commercially available. One such test is known at the Cell Titer Blue Cell Viability test assay from Promega. Cell cultures for each of the identified cancer lines were obtained from ATCC and maintained in Dulbecco's Modified Eagle Medium (DMEM) supplemented with 10% fetal bovine serum (FBS) and pen/strep. As known to those skilled in the art, DMEM typically includes the components identified below.
(§2) The test method provides for incubating the cell cultures at 37° C. Additionally, the cell cultures are kept under an atmosphere containing 5% CO2. After allowing for proliferation of the cells, the cells were distributed across a plurality of test cells containing from 100 μL DMEM plus 10% FBS and allowed to attach to the surface of the cells. Typically, the time for attachment will require about 12 hours to about 18 hours. Following attachment, the cells were treated with either a solvent control or the N-benzyl sulfonamide compound of interest dissolved in a suitable solvent such as but not limited to DMSO. Typically, about 18 hours to about 36 hours are required to determine the effect of the N-benzyl sulfonamide compound of interest on cell viability. Following treatment of the cells with the N-benzyl sulfonamide or control, the toxicity of the compound to the cells will be determined by addition of 10 μl of CellTiter-Blue reagent, i.e. resazurin. Typically, the resazurin is added between about 18 hours to about 36 hours after treating the cells with the N-benzyl sulfonamides or the control. The cells are allowed to consume and convert the resazurin to resorufin for about one to four hours. Subsequently, the fluorescence of […] is measured by excitation at 560 nm and recording the emission at 590 nm within an instrument configured to measure fluorescence intensity. Two commercially available systems are the BioTek Cytation 5 plate reader and the Promega Glomax Multi+detection system. […] The method for determining IC50 values is well known in the art and will not be discussed further. As known to those skilled in the art, IC50 is a quantitative measure that indicates how much of a particular inhibitory substance (e.g. drug) is needed to inhibit, in vitro, a given biological process or biological component by 50%. Therefore, each N-benzyl sulfonamide will be tested over a range of concentrations. Typically, the concentration ranges will be: 6.25 μM, 12.5 μM, 25 μM, 50 μM, and 100 μM. The control in this method is normally dimethyl […] (DMSO) or other solvent suitable for dissolving the compounds to be tested. FIG. 8 depicts the % cell viability for the indicated compounds depicted in FIG. 7.
(§3) The Table of FIG. 9 provides the results of cytotoxicity testing a 100 μM concentration of compounds 2, 5-9, 11-12, 14, 16, 18-22 of FIG. 7 against the indicated cancer cell lines using CellTiter-Blue assay with 24 hour compound incubation time. FIG. 9 reflects the percent reduction in cell viability resulting from the treatment of the indicated cancer cell lines with the indicated compounds. As indicated by the boxed values in FIG. 9, compounds 2, 5, and 6 would be considered effective against H293. […] The Table of FIG. 10 provides a comparison of the IC50 values of select compounds from FIG. 7 to the IC50 values of two known anti-cancer sulfonamides, ABT-751 and Indisulam. As indicated by FIG. 10, the identified compounds performed remarkably better than the known anti-cancer agents. Thus, the identified compounds are expected to have greater anti-cancer potency.

[1] = tested on: MCF10A (non-cancerous breast)
Procedure: as §1, §2, §3

NCI-H196 (lung cancer) = tested on: NCI-H196 (lung cancer)
Procedure: as §1, §2, §3

Cc1ccc(S(=O)(=O)NCc2c[nH]c3cccc(Br)c23)cc1 [Compound 5, N-[(4-bromo-1H-indol-3-yl)methyl]-4-methylbenzenesulfonamide]
displayed effectiveness: percent reduction in cell viability, HeLa (HeLa (cervical cancer)) | percent reduction in cell viability, MCF10A [1] | percent reduction in cell viability, NCI-H196 (NCI-H196 (lung cancer))
